Data: US10564167B2, “Method for detecting cells” (FUNDACIÓ INSTITUT DE CIÈNCIES FOTÒNIQUES, priority 2014, dated 2020)

Experiments:
Assay type in all cases: cell-based
[1] = test system: human fibroblast nuclei (hFb); experiment: STORM super-resolution imaging of H2B nanodomains / nucleosome clutches in TSA-treated human fibroblasts
Protocol: (§1) Human fibroblasts (hFb) (BJ, Skin Fibroblast, American Type Culture Collection, ATCC® CRL-2522™) were cultured in DMEM supplemented with 10% FBS, 1× Non-essential AA, 1× GlutaMax and 1× penicillin/streptomycin. Human fibroblasts were treated with 300 nM of TSA (TricostatinA, Sigma-Aldrich) solution (TSA-hFbs) in complete growth medium for 24 hours before imaging experiments. Human fibroblasts expressing the Histone H2B-SNAP fusion protein were obtained after drug selection of nucleofected cells with the pSNAP-H2B Plasmid (N91795, New England BioLabs) using the Amaxa Human Dermal Fibroblast Nucleofector Kit (Lonza, VPD-1001).
For the imaging experiments, cells were plated on 8-well Lab-tek 1 coverglass chamber (Nunc) at a seeding density of 20,000-50,000 cells per well, fixed and permeabilized with Methanol-Ethanol (1:1) solution at −20° C. for 6 min or fixed with PFA 4% in PBS for 10 min and then permeabilized with 0.1% v/v Triton X-100 (SIGMA) in PBS for 10 min at room temperature. As the distribution of H2B was independent of the fixation and permeabilization protocols, Methanol-Ethanol (1:1) was preferred to minimize the handling of the sample. […]
For all H2B quantification experiments, primary rabbit polyclonal anti-H2B (ab1790) and the secondary donkey anti-rabbit labeled with Alexa Fluor 405-Alexa Fluor 647 (Invitrogen) pair dyes were used after in vitro characterization using mononucleosome, 12- and 24-nucleosome array labeling.
(§2) STORM imaging was carried out with a commercial STORM microscope system from Nikon Instruments (NSTORM). Laser light at 647 nm was used for exciting Alexa Fluor 647 (Invitrogen) and switching it to the dark state, and laser light at 405 nm was used for reactivating the Alexa Fluor 647 (Invitrogen) fluorescence via an activator dye (Alexa Fluor 405)—facilitated manner. […]

[2] = test system: H3 acetylation in human fibroblast cells; experiment: STORM imaging of H3 acetylation in human fibroblasts before and after TSA; conditions: hFbs, 300 nM TSA 24 hours, STORM images
Protocol: as §1
(§3) For the imaging experiments, cells were plated on 8-well Lab-tek 1 coverglass chamber (Nunc) at a seeding density of 20,000-50,000 cells per well, fixed and permeabilized with Methanol-Ethanol (1:1) solution at −20° C. for 6 min or fixed with PFA 4% in PBS for 10 min and then permeabilized with 0.1% v/v Triton X-100 (SIGMA) in PBS for 10 min at room temperature. […]
as §2

[3] = test system: human fibroblast nuclei (hFb); experiment: Multi-color STORM imaging of H2B and H1 co-localization in hFbs and TSA-hFbs; conditions: TSA-hFbs (hFbs 61±11%, p=0.028)
Protocol: as §1, §3, §2

CC(/C=C/C(=O)NO)=C\[C@@H](C)C(=O)c1ccc(N(C)C)cc1 [TSA, Trichostatin A]
distributions of number of localizations per nanodomain, nanodomain areas and nanodomain nnds vs hFbs ([1]; TSA-hFbs compared to hFbs, p<10^-3): shifted to lower values
H2B nanodomain density in the nuclear periphery compared to the nuclear interior (enhancement) ([1]; TSA-hFbs, 300 nM TSA 24 hours (untreated hFbs ~25% higher)): ~10%
median number of nucleosomes per clutch ([1]; hFbs treated with 300 nM TSA for 24 hours, converted from H2B localizations by in vitro calibration curve (untreated hFbs ~8)): ~2 nucleosomes
H3 acetylation after TSA treatment [2]: large increase in H3 acetylation
percentage of H2B co-localized with H1 [3]: 42±6%
